Assay results: patent publication US10086066B2, “Tissue targeted antigenic activation of the immune response to treat cancers” (Qu Biologics Inc., priority 2004, dated 2018)

Test system: 4T1 mammary carcinoma cells
Assay: Indomethacin efficacy study QB35, 4T1 mammary carcinoma (tumour volume, CD11b+ cells)
Format: in vivo, mouse (Balb/c)
Procedure: In an effort to examine the efficacy of combining antigenic composition treatment with indomethacin. Briefly, experiments were designed wherein there were 10 mice in each of 4 groups with all treatments beginning on day 4 after tumour inoculation. All mice (Balb/c female) received 50,000 4T1 mammary carcinoma cells subQ on day 0. Thereafter, the 4 groups were treated as follows: 1) Indomethacin daily (in drinking water)+PBS subQ every 2 days; 2) Indomethacin daily (in drinking water)+S. aureus SSI subQ every 2 days; 3) Control vehicle daily (in drinking water)+PBS subQ every 2 days; and 4) Control vehicle daily (in drinking water)+S. aureus SSI subQ every 2 days.

`COc1ccc2c(c1)c(CC(=O)O)c(C)n2C(=O)c1ccc(Cl)cc1` [Indomethacin] was tested, and the “frequency of CD11b+ cells in the tumors relative to the control” value (day 11, indomethacin daily in drinking water, with PBS or S. aureus SSI (FIG. 35)) was “significantly increased” and the “CD11b+ cells in the tumours” value (day 22 (FIG. 36)) was “increase”.
